# pIC50: −log10 of the molar value. Counter-ions that a name gives are not always drawn.
# Target: T1, glucan synthase (GS) prepared from Candida albicans MY1055 (Candida albicans, UniProt O13428)
# T1 construct: Extraction of GS activity from membranes was performed at a protein concentration of 5 mg/mL in extraction buffer; endogenous in cells; host or cells: Candida albicans MY1055 (membranes, detergent extract, product entrapment)
# Experiment: Glucan synthase inhibition (polymerization assay, 96-well, 3H-UDPG incorporation)
# Assay type: biochemical
# Details: glucan synthase from C. albicans MY1055
# Method: The in vitro evaluation of glucan synthase inhibitory activity of compounds was measured in a polymerization assay in 96-well format. Each well contained 100 μL of ^3H-UDPG at 0.5 mM (6000 to 8000 dpm/nmol), 50 mM HEPES pH 7.5 (Sigma), 10% w/v glycerol (Sigma), 1.5 mg/mL bovine serum albumin (Sigma A 9647. Lot 44H0190), 25 mM KF (Fisher), 1 mM EDTA (Gibco Ultrapure), 25 μM GTP-γ-S, enzyme sufficient to give 3 to 6 nmoles incorporation during the 60 min incubation at 22° C., and test compound added from wells in 3-fold serial dilutions in 100% DMSO (1 μL/well). The reaction was stopped by the addition of 100 μL of 20% trichloroacetic acid. Plates were chilled for a minimum of 10 min, and precipitated glucan collected by filtration on GF/C plates (Packard Unifilter®-96), washed with 5 cycles of water (about 1 mL/well each cycle) using a Packard Filtermate Harvester. 40 μL/well scintillation fluid (Packard Ultima Gold TM-XR) was added and the sealed plates counted in a Wallac Beta counter in top-counting mode at an efficiency of approximately 40%.
# Stock solutions were stored at 10 mg/mL in DMSO at −20° C. For each new enzyme preparation, the initial titration performed started at 1 mg/mL, which was prepared by making a 10-fold dilution in DMSO (5 μL to 50 μL). 40 μL of this stock was placed in column 12 of a round-bottomed 96-well microtiter plate. 40 μL DMSO was added to columns 1 to 11 in the same row and ten 3-fold serial dilutions performed, by transferring 20 μL from column 12 to column 11 etc., with 4 mixings before each transfer. No test compound was transferred to from column 2 to column 1. Duplicate aliquots of 1 μL of all 12 dilutions were then transferred to the side walls of a 96-well Bioblock 1.1 mL plate (Fisherbrand) to create two rows.
# The results were tabulated and a standard plate background was subtracted and the net count transpose-pasted into a Prism file, with final compound concentrations used in ng/mL. Graphs were created in Prism software, using the average of two determinations, and using Prism's curve fitting program (sigmoidal dose response non-linear regression).
# Routine analysis was performed with glucan synthase (GS) prepared from Candida albicans MY1055 by the following procedure: MY1055 was grown in 10 liters YPD medium (10 g yeast extract, 20 g tryptone, 20 g glucose per liter) with vigorous shaking at 30° C., to early stationary phase. Cells were harvested by centrifugation, the pellet was washed and frozen at −70° C. until breakage. Thawed pellets were shaken with an equal volume of breakage buffer (50 mM HEPES pH 7.4, 10% glycerol, 1 mM EDTA, 1 mM PMSF, 1 mM DTT) and 4 times their weight of 0.5 mm acid washed glass beads for 2 hours at 4° C. Extent of breakage was assessed visually at 40× magnification. For C. parapsilosis strains, shaking was extended to 3 hours to maximize breakage. After low speed centrifugation to remove cell debris, the supernatant was centrifuged at 100,000×g for 60 min. to separate membranes plus ribosomes from cytoplasmic components. Membranes were further washed two additional times with breakage buffer using the same centrifugation conditions and finally suspended in breakage buffer at 25 to 30 mg/mL protein (Biorad) for storage at −70° C. Extraction of GS activity from membranes was performed at a protein concentration of 5 mg/mL in extraction buffer (50 mM NaPO4 pH 7.5, 0.1 M KCl, 0.1M Na citrate, 20% glycerol, 5 μM GTP-γ-S, 1 mM DTT, 1 mM PMSF, 3 μg/mL pepstatin) plus 0.25% W1 by gentle mixing at 4° C. for 60 min, followed by centrifugation at 100,000×g for 60 min. After centrifugation, clear supernatant was removed from a pellet consisting of a hard layer usually with small amounts of gelatinous unextracted membranes above it. […]
# T1 sequence (O13428 1-1897): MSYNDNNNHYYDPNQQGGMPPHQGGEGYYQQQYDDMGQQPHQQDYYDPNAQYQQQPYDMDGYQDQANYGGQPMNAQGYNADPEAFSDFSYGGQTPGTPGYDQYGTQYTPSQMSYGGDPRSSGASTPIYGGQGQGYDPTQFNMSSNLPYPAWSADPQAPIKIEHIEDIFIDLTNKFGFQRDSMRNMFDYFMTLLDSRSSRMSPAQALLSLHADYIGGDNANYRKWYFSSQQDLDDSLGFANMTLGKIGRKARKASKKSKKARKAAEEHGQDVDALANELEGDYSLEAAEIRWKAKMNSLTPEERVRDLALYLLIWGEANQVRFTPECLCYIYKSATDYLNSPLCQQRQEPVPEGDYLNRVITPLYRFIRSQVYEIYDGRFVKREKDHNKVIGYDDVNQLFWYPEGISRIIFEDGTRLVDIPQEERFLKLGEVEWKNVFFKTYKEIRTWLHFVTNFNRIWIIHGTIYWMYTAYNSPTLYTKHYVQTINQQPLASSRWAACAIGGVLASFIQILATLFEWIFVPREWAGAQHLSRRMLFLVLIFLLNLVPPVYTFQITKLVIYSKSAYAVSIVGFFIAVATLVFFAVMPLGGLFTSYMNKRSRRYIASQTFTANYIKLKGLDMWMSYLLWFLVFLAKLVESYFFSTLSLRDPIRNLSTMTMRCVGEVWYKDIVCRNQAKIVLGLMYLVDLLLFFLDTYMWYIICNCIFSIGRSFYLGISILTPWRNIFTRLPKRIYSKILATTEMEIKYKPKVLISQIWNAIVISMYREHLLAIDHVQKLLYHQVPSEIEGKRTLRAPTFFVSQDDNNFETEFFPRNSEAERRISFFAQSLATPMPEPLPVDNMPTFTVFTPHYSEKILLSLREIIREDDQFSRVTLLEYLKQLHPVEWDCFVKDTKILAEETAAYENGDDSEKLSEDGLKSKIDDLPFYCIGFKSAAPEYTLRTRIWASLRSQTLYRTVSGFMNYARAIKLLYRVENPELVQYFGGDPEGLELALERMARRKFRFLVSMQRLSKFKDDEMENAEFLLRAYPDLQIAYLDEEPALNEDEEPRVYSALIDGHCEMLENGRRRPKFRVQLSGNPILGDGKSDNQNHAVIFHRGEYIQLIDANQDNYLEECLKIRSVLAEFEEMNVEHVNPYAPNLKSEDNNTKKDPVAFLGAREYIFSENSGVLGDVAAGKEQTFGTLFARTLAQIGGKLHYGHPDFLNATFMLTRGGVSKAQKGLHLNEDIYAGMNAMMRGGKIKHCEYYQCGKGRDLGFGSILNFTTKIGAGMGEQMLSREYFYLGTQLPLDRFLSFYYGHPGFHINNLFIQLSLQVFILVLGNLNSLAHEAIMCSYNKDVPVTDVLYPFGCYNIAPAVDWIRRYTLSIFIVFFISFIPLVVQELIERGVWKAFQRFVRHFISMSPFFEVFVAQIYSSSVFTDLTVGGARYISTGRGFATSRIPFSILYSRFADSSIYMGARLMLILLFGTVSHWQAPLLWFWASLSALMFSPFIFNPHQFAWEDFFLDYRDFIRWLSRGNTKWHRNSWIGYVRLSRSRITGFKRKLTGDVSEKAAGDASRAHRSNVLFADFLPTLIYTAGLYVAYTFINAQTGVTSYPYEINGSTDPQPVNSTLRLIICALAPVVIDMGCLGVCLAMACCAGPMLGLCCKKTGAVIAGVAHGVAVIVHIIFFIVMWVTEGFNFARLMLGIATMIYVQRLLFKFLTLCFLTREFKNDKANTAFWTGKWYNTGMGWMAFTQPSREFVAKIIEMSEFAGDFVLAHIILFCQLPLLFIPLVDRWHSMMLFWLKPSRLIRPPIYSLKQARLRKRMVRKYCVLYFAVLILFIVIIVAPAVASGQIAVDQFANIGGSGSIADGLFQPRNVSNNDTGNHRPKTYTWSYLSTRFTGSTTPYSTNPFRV
# T1 sequence (O42825 whole entry partner): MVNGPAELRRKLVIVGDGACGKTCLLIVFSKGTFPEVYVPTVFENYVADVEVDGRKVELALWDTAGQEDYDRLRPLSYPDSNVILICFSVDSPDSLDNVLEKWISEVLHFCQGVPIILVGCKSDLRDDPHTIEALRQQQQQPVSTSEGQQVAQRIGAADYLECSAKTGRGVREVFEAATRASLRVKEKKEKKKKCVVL
row,Structure (SMILES),pIC50
1,"CC(=O)O[C@@H]1C[C@@]23COC[C@](C)([C@@H]2CC[C@H]2C3=CC(=O)[C@@]3(C)[C@H](C(=O)O)[C@@](C)([C@H](C)C(C)C)CC[C@]23C)[C@H]1OC[C@](C)(N)C(C)C [Example 151, (1S,2R,3R,4aR,6aS,7R,8R,10aR,10bR,12aR)-3-acetoxy-2-[[(2R)-2-amino-2,3-dimethylbutyl]oxy]-8-[(1R)-1,2-dimethylpropyl]-1,6a,8,10a-tetramethyl-6-oxo-1,3,4,6,6a,7,8,9,10,10a,10b,11,12,12a-tetradecahydro-2H-1,4a-(methanooxymethano)chrysene-7-carboxylic acid (fumaric acid salt)]",7.77
2,"CN[C@@](C)(CO[C@H]1[C@H](OC(C)=O)C[C@@]23COC[C@]1(C)[C@@H]2CC[C@H]1C3=CC(=O)[C@@]2(C)[C@H](C(=O)O)[C@@](C)([C@H](C)C(C)C)CC[C@]12C)C(C)C [Example 152, (1S,2R,3R,4aR,6aS,7R,8R,10aR,10bR,12aR)-3-acetoxy-2-[[(2R)-2-methylamino-2,3-dimethylbutyl]oxy]-8-[(1R)-1,2-dimethylpropyl]-1,6a,8,10a-tetramethyl-6-oxo-1,3,4,6,6a,7,8,9,10,10a,10b,11,12,12a-tetradecahydro-2H-1,4a-(methanooxymethano)chrysene-7-carboxylic acid (fumaric acid salt)]",7.86
3,"CC(=O)O[C@@H]1C[C@@]23COC[C@](C)([C@@H]2CC[C@H]2C3=CC(=O)[C@@]3(C)[C@H](C(=O)O)[C@@](C)([C@H](C)C(C)C)CC[C@]23C)[C@H]1OC[C@@](C)(C(C)C)N(C)C [Example 153, (1S,2R,3R,4aR,6aS,7R,8R,10aR,10bR,12aR)-3-acetoxy-2-[[(2R)-2-dimethylamino-2,3-dimethylbutyl]oxy]-8-[(1R)-1,2-dimethylpropyl]-1,6a,8,10a-tetramethyl-6-oxo-1,3,4,6,6a,7,8,9,10,10a,10b,11,12,12a-tetradecahydro-2H-1,4a-(methanooxymethano)chrysene-7-carboxylic acid (fumaric acid salt)]",7.57

# Source: patent publication US7863465B2, “Antifungal agents” (Merck Sharp & Dohme Corp., priority 2006, dated 2011)
